Results from patent publication USRE48267E1, “Variants of C-type natriuretic peptide” (priority 2009, dated 2020).
Where a SMILES comes first, the peptide text is derived from it. Bridges are numbered along the chain shown (N, C = ends). The star is where a group is joined. MeO(CH2CH2O)23CH2CH2CO = COCCOCCOCCOCCOCCOCCOCCOCCOCCOCCOCCOCCOCCOCCOCCOCCOCCOCCOCCOCCOCCOCCOCCOCCC(=O)*

Tested on: wild-type mouse femurs and tibias
Test: mouse organ culture model of endochondral bone growth, wild-type bones
Settings: for longitudinal growth of wild-type mouse femur ex vivo: 8 days
Description: To determine the efficacy of CNP variants in stimulating longitudinal bone growth, CNP variants were tested in a mouse organ culture model of endochondral bone growth in wild-type mice and transgenic mice having a G380R mutation in the human FGFR-3 gene (FGFR3^wt/Ach heterozygote) which represent a mouse model of mild achondroplasia. In brief, the pharmacological activity of wild-type CNP22 and CNP variants was compared in an organ culture model of embryonic or neonatal mouse tibiae, isolated from wild-type and FGFR3^wt/Ach littermates. Overall bone growth and histological changes within the growth plate were assessed. Conditioned culture medium is also assessed for biomarkers of intracellular signaling (cGMP), cartilage metabolism (type II collagen, other collagens, aggrecan chondroitin sulfate), bone metabolism (bone alkaline phosphatase, osteocalcin, type I collagen [C-telopeptide, N-telopeptide]), and inflammation (interleukin-1, interleukin 6, interleukin-11).
The efficacy of wtCNP22, CNP37 and PEO24-[…]22(K4R) (SEQ ID NO: 36) in stimulating longitudinal femoral growth was evaluated in the mouse organ culture model. For these experiments femora were isolated from 2-3 day old wild-type mice and cultured in alphaMEM supplemented with 0.2% BSA, 0.5 mM L-glutamine, 40 units penicillin/mL and 40 ug streptomycin/mL, for 8 days in the presence of vehicle, CNP22 or CNP variants. The treatment commenced at day 0 and was repeated every two days thereafter, as the medium was changed. Bones were measured prior to treatment and every two days thereafter, using a dissection microscope fitted with a 1 cm eye-piece reticule. Conditioned medium was used for biomarker analysis. At day 8 bones were fixed in 4% paraformaldehyde for 24 hr, decalcified in 5% formic acid for 24 hrs, dehydrated and embedded in paraffin. Bones were sectioned at 5 um (microns), which were then deparaffinized, rehydrated, and stained with Alcian Blue for 30 min (pH 2.5; MasterTech). Alcian Blue stains cartilage blue. Stained sections were visualized and photographed by brightfield microscopy. The thickness of the hypertrophic region of the growth plate cartilage was determined by image analysis.
In addition to the distribution of CNP variants in the bone growth plate, the ex vivo effects of CNP37, CNP22 and vehicle on cells in the FGFR3^ach and wild-type growth plate, e.g., hypertrophic cell size and cellularity of proliferating zone, were also evaluated. Bone samples were prepared, including Alcian Blue staining, as described above. Images of the entire proximal growth plate were taken at 4× magnitude. The growth plate is divided into three zones, starting from the epiphyseal side of cartilage: the resting zone (individual small chondrocytes), proliferating zone (columns of stacked chondrocytes parallel to the long axis of the bone), and hypertrophic zone (large chondrocytes and thin septa between the chondrocytes). In these regions, measurements were made by ImageJ software, including the number of proliferating chondrocytes per column and the density of hypertrophic chondrocytes. […] The cell size of hypertrophic chondrocytes was calculated by 1 over determined cell density. […]
Femurs and tibias were isolated from wild-type and FGFR3^ach mice as described above. […] On the eighth day, media was collected and analyzed for the biomarkers cGMP (cyclic guanosine 3′, 5′ cyclic monophosphate) and fragments of cleaved collagen type II, a cartilage-specific marker for cartilage turnover. […]

## CC[C@H](C)[C@@H]1NC(=O)[C@H](CCCNC(=N)N)NC(=O)[C@H](CC(=O)O)NC(=O)[C@H](CC(C)C)NC(=O)[C@H](CCCCN)NC(=O)[C@H](CC(C)C)NC(=O)CNC(=O)[C@H](Cc2ccccc2)NC(=O)[C@@H](NC(=O)CNC(=O)[C@H](CCCNC(=N)N)NC(=O)[C@H](CO)NC(=O)[C@H](CC(C)C)NC(=O)CNC(=O)[C@H](CCCNC(=N)N)NC(=O)[C@H](CCCNC(=N)N)NC(=O)[C@H](CC(N)=O)NC(=O)[C@H](C)NC(=O)CNC(=O)CCOCCOCCOCCOCCOCCOCCOCCOCCOCCOCCOCCOCCOCCOCCOCCOCCOCCOCCOCCOCCOCCOCCOCCOC)CSSC[C@@H](C(=O)O)NC(=O)CNC(=O)[C@H](CC(C)C)NC(=O)CNC(=O)[C@H](CO)NC(=O)[C@H](CCSC)NC(=O)[C@H](CO)NC(=O)CNC1=O [PEO24-GANRR-CNP22(K4R)] ({MeO(CH2CH2O)23CH2CH2CO}-GANRRGLSRGCFGLKLDRIGSMSGLGC-OH; disulfide 11-27)
ex-planted wild-type mouse femurs and tibias, day 8
  cGMP levels in conditioned media: large increase (p<0.01)
Treated every two days
  longitudinal growth of wild-type mouse tibia ex vivo: increased the longitudinal growth of the tibia compared to vehicle or CNP22
  longitudinal growth of wild-type mouse femur ex vivo: the most effective
Treated every two days, listed as PE024-GANRR-CNP22(K4R)
  longitudinal growth of wild-type mouse femur ex vivo: stimulated the growth of wild-type mouse femur
wild-type mouse femurs
  levels of cleaved collagen type II in conditioned media: increased
